Results from ChEMBL document CHEMBL5104196, “Discovery of Novel, Potent, and Selective Small-Molecule Menin-Mixed Lineage Leukemia Interaction Inhibitors through Attempting Introduction of Hydrophilic Groups” (J Med Chem, 2022).
Values after ≈ are worked out from the molar mass of the structure shown. Active and inactive are the calls of the source. The rule behind the calls is not given here.

Experiments:
[1] = test system: HL-60; assay: Antiproliferative activity against human […] assessed as cell growth inhibition measured for 72 hrs by MTT assay; format: functional, cell-based; conditions: HL-60, 72 h
[2] = test system: MV4-11; assay: Antiproliferative activity against human MV4-11 cells harboring MLL-AF4 assessed as cell growth inhibition measured for 72 hrs by MTT assay; format: functional, cell-based; conditions: MV4-11, 72 h
[3] = biological target: Menin/Histone-lysine N-methyltransferase MLL (Homo sapiens, UniProt O00255); assay: Inhibition of Menin/fluorescein labeled MLL(4 to 43 residues) (unknown origin) protein protein interaction incubated for 1 hr by fluorescence polarization-based competitive binding assay
[4] = Solubility of compound in phosphate buffer at pH 7.4 by spectrophotometric analysis; format: physicochemical
[5] = test system: MV4-11; assay: Antiproliferative activity against human MV4-11 cells assessed as reduction in cell viability measured for 3 days by cell counting assay; format: functional, cell-based; conditions: MV4-11, 72 h
[6] = test system: MV4-11; assay: Antiproliferative activity against human MV4-11 cells assessed as reduction in cell viability measured for 3 days followed by replacement with fresh medium of compound and measured after 72 hrs by cell counting assay; format: functional, cell-based; conditions: MV4-11, 72 h
[7] = test system: MV4-11; assay: Reversible differentiation arrest in human MV4-11 cells at 0.1 to 10 uM measured after 7 days by flow cytometric analysis; format: functional, cell-based; conditions: dose 0.1-10 µM, time 7.0 day
[8] = test system: MV4-11; assay: Induction of apoptosis in human MV4-11 cells incubated for 24 hrs by annexinV/PI staining based flow cytometry analysis; format: functional, cell-based; conditions: dose 0.1-10 µM, DDE = dose-dependent effect
[9] = test system: MV4-11; assay: Induction of cell differentiation in human MV4-11 cells assessed as increase in CD11b expression at 10 uM measured after 7 days by flow cytometric analysis; format: functional, cell-based; conditions: time 7.0 day

Chain of Menin/Histone-lysine N-methyltransferase MLL (O00255 whole entry, the tested form may be a part): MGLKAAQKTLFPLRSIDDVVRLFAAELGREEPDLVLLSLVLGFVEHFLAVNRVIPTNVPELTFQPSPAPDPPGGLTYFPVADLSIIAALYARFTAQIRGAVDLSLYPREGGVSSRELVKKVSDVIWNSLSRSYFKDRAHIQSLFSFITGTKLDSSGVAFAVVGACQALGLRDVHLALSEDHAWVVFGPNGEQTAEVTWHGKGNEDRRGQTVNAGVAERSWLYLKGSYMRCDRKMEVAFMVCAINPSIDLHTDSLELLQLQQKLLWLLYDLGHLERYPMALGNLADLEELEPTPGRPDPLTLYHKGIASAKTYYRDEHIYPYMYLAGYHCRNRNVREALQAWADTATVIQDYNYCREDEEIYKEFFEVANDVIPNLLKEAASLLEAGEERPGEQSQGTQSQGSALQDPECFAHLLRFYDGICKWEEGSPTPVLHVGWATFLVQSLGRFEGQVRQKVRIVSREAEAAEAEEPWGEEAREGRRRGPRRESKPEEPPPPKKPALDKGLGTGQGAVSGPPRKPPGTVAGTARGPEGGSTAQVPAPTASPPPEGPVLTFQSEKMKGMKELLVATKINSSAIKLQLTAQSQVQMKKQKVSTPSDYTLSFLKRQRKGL
Chain of Menin/Histone-lysine N-methyltransferase MLL (Q03164 1-2718 partner limits assumed): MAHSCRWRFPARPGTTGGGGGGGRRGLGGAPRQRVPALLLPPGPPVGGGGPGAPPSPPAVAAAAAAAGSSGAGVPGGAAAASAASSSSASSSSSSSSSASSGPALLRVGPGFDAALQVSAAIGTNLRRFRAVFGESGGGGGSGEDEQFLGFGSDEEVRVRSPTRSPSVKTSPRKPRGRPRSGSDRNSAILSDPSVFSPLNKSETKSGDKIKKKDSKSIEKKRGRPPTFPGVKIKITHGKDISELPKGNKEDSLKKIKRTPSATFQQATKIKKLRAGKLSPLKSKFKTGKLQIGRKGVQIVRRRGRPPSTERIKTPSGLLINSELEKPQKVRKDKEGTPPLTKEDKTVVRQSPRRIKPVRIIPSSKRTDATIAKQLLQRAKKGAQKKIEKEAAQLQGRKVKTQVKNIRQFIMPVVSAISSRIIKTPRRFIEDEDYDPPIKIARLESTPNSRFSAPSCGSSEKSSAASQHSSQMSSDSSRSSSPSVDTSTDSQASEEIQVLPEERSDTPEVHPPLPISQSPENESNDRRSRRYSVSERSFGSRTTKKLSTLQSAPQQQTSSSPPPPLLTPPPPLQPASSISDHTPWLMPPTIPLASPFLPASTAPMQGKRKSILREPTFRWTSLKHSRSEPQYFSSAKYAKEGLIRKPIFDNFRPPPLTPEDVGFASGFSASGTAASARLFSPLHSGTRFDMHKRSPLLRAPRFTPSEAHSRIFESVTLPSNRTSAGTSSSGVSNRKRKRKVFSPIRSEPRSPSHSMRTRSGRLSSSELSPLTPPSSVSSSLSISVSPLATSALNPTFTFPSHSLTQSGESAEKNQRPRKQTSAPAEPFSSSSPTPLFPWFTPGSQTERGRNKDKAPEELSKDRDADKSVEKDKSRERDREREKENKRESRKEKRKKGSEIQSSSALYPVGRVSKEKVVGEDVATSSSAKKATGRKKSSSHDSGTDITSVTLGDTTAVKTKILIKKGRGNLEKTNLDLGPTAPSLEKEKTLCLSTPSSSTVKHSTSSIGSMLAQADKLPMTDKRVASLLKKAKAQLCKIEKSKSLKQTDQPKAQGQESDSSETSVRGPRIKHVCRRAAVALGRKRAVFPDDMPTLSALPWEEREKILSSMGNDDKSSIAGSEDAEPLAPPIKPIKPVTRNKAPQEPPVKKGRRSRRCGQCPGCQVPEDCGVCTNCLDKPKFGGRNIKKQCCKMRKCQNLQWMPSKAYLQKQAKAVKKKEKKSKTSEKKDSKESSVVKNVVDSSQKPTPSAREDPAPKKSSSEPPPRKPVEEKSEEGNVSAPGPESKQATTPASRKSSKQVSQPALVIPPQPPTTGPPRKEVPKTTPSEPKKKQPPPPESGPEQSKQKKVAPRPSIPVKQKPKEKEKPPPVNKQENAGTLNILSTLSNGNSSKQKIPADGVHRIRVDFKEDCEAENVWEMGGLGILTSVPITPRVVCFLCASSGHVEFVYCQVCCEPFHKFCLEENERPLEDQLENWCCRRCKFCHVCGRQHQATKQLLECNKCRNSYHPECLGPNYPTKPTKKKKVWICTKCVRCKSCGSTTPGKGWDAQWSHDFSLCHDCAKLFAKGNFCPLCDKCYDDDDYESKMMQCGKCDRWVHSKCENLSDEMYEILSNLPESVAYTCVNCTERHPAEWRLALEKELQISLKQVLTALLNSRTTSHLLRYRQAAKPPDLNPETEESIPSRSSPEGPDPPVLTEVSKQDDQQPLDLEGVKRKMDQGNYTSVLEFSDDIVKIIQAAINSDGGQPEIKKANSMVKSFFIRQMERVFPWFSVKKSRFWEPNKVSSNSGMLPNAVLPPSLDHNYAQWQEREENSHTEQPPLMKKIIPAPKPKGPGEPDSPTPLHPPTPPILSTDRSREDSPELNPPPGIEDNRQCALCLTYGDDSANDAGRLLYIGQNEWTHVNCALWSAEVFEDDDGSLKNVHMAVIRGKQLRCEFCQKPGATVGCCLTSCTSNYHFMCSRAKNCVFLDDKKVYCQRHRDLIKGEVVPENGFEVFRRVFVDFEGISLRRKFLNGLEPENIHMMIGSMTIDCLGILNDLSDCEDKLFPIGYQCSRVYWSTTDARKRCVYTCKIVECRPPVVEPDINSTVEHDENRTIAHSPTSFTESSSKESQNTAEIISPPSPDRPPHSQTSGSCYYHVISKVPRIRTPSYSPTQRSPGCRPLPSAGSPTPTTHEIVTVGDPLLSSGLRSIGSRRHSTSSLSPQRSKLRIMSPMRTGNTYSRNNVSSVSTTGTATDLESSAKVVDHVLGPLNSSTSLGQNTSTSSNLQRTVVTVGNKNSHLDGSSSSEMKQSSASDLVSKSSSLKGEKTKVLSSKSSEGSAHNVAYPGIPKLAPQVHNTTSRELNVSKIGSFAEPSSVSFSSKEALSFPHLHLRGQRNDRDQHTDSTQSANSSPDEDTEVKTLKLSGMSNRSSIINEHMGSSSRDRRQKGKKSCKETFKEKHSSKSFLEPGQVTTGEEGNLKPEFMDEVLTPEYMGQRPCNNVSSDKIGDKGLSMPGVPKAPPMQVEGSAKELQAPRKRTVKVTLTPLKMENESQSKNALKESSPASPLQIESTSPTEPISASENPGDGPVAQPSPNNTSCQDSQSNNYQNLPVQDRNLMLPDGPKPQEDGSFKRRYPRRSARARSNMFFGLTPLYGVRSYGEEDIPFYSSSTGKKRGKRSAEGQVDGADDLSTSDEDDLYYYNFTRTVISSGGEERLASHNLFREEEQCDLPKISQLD
Chain of Menin/Histone-lysine N-methyltransferase MLL (Q03164 2719-3969 partner limits assumed): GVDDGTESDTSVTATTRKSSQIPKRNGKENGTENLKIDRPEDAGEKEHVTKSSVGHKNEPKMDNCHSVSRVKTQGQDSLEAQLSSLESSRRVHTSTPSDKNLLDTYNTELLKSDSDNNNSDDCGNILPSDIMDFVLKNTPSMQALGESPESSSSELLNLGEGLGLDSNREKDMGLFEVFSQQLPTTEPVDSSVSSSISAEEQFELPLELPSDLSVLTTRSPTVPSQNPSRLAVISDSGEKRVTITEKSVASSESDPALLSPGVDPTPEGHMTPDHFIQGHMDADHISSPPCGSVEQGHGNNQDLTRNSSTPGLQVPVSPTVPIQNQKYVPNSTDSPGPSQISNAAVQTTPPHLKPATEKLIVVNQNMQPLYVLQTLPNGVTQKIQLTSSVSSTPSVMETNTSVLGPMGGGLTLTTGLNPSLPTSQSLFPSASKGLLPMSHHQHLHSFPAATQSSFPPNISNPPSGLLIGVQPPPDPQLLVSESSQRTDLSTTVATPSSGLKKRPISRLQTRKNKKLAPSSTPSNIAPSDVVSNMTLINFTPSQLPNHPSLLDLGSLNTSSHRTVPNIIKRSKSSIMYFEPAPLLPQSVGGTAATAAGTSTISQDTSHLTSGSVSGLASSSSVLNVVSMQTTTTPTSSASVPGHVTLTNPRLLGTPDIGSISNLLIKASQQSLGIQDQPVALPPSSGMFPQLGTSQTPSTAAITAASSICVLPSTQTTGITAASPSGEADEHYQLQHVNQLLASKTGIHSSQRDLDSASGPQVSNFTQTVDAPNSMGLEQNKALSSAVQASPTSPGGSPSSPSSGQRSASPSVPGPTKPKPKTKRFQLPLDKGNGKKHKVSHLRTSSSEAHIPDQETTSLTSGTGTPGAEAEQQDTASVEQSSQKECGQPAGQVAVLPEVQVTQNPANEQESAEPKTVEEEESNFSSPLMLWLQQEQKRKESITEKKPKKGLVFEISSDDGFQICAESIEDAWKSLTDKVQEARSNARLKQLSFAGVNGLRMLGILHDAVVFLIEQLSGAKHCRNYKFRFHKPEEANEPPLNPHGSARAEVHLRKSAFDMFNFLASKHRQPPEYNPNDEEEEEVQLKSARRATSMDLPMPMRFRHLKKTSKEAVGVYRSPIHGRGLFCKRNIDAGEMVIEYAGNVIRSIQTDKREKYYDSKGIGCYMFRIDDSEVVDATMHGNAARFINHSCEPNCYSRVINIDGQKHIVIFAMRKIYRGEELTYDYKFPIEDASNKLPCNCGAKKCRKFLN

SMILES | IC50 [1] [µM] | IC50 [2] [µM] | IC50 [3] [µM] | solubility [4] [mg/mL] | IC50 [5] [µM] | IC50 [6] [µM] | Activity [7] | Activity [8] | Activity [9]
CN(C)CCOc1ccc2ncnc(NC3CCN(CC4CN(c5ccc(S(=O)(=O)C6CN(C(=O)OC(C)(C)C)C6)cc5)C4)CC3)c2n1 | > 10 | 2 | 0.19 | 0.0695 (≈ 102 µM) | – | – | – | – | –
N#Cc1ccc(N2CC(CN3CCC(Nc4ncnc5cnc(Cl)cc45)CC3)C2)cc1 | > 10 | > 10 | > 10 | – | – | – | – | – | –
CN1CCN(c2cc3c(NC4CCN(CC5CN(c6ccc(C#N)cc6)C5)CC4)ncnc3cn2)CC1 | > 10 | 6.7 | > 10 | – | – | – | – | – | –
O=S(=O)(c1ccc(N2CC(CN3CCC(Nc4ncnc5ccc(Cl)nc45)CC3)C2)cc1)c1ccccn1 | > 10 | 2.5 | 0.06 | – | – | – | – | – | –
O=S(=O)(c1ccncc1)c1ccc(N2CC(CN3CCC(Nc4ncnc5cnc(Cl)cc45)CC3)C2)cc1 | > 10 | 9 | > 10 | – | – | – | – | – | –
N#Cc1ccc(N2CC(CN3CCC(Nc4ncnc5cnc(N6CCCCC6)cc45)CC3)C2)cc1 | > 10 | > 10 | 0.59 | – | – | – | – | – | –
N#Cc1ccc(N2CC(CN3CCC(Nc4ncnc5ccc(OCC(F)(F)F)nc45)CC3)C2)cc1 | > 10 | 5.6 | > 10 | – | – | – | – | – | –
CC(C)(C)OC(=O)N1CC(S(=O)(=O)c2ccc(N3CC(CN4CCC(Nc5ncnc6ccc(Cl)nc56)CC4)C3)cc2)C1 | > 10 | 2.3 | 0.12 | < 0.0006 | – | – | – | – | –
CN(C)CCNc1ccc2ncnc(NC3CCN(CC4CN(c5ccc(C#N)cc5)C4)CC3)c2n1 | > 10 | 4.4 | 0.97 | – | – | – | – | – | –
N#Cc1ccc(N2CC(CN3CCC(Nc4ncnc5ccc(CC(F)(F)F)cc45)CC3)C2)cc1 | > 10 | > 10 | > 10 | – | – | – | – | – | –
CC(C)(C)OC(=O)N1CC(S(=O)(=O)c2ccc(N3CC(CN4CCC(Nc5ncnc6cnc(Cl)cc56)CC4)C3)cc2)C1 | > 10 | > 10 | > 10 | – | – | – | – | – | –
CN(C)CCN(C)c1ccc2ncnc(NC3CCN(CC4CN(c5ccc(C#N)cc5)C4)CC3)c2n1 | > 10 | 3.2 | 0.26 | – | – | – | – | – | –
CN(C)CCOc1ccc2ncnc(NC3CCN(CC4CN(c5ccc(C#N)cc5)C4)CC3)c2n1 | > 10 | 1.5 | 0.06 | 0.314 (≈ 645 µM) | – | – | – | – | –
N#Cc1ccc(N2CC(CN3CCC(Nc4ncnc5cnc(NCC6CC6)cc45)CC3)C2)cc1 | > 10 | > 10 | > 10 | – | – | – | – | – | –
O=S(=O)(c1ccc(N2CC(CN3CCC(Nc4ncnc5ccc(Cl)nc45)CC3)C2)cc1)C1CC1 | > 10 | 6.6 | 0.09 | 0.0159 (≈ 31 µM) | – | – | – | – | –
CCNCCNc1ccc2ncnc(NC3CCN(CC4CN(c5ccc(C#N)cc5)C4)CC3)c2n1 | > 10 | > 10 | > 10 | – | – | – | – | – | –
N#Cc1ccc(N2CC(CN3CCC(Nc4ncnc5cnc(N6CCOCC6)cc45)CC3)C2)cc1 | > 10 | > 10 | > 10 | – | – | – | – | – | –
N#Cc1ccc(N2CC(CN3CCC(Nc4ncnc5ccc(Br)cc45)CC3)C2)cc1 | > 10 | > 10 | > 10 | – | – | – | – | – | –
N#Cc1ccc(N2CC(CN3CCC(Nc4ncnc5ccc(N6CCNCC6)nc45)CC3)C2)cc1 | > 10 | 2.2 | 0.18 | – | – | – | – | – | –

SMILES | IC50 [1] [µM] | IC50 [2] [µM] | IC50 [3] [µM] | solubility [4] [mg/mL] | IC50 [5] [µM] | IC50 [6] [µM] | Activity [7] | Activity [8] | Activity [9]
CCN(CC)CCNc1ccc2ncnc(NC3CCN(CC4CN(c5ccc(C#N)cc5)C4)CC3)c2n1 | 9.5 | 4.2 | 0.82 | – | – | – | – | – | –
CN(C)CCOc1ccc2ncnc(NC3CCN(CC4CN(c5ccc(S(=O)(=O)c6ccncc6)cc5)C4)CC3)c2n1 | > 10 | 1.5 | 0.01 | 0.153 (≈ 254 µM) | – | – | – | – | –
CN(C)C1CCN(c2cc3c(NC4CCN(CC5CN(c6ccc(C#N)cc6)C5)CC4)ncnc3cn2)CC1 | > 10 | 3 | > 10 | – | – | – | – | – | –
N#Cc1ccc(N2CC(CN3CCC(Nc4ncnc5ccc(Cl)nc45)CC3)C2)cc1 | > 10 | > 10 | > 10 | < 0.0004 | – | – | – | – | –
N#Cc1ccc(N2CC(CN3CCC(Nc4ncnc5ccc(NCCN)nc45)CC3)C2)cc1 | > 10 | 9.8 | 0.68 | – | – | – | – | – | –
N#Cc1ccc(N2CC(CN3CCC(Nc4ncnc5cnc(OCC(F)(F)F)cc45)CC3)C2)cc1 | > 10 | > 10 | 0.69 | – | – | – | – | – | –
N#Cc1ccc(N2CC(CN3CCC(Nc4ncnc5cnc(NC6CCCC6)cc45)CC3)C2)cc1 | > 10 | > 10 | 0.06 | – | – | – | – | – | –
COC(CNc1ccc2ncnc(NC3CCN(CC4CN(c5ccc(C#N)cc5)C4)CC3)c2n1)OC | > 10 | > 10 | > 10 | – | – | – | – | – | –
CN(C)C1CCN(c2ccc3ncnc(NC4CCN(CC5CN(c6ccc(C#N)cc6)C5)CC4)c3n2)CC1 | 10.2 | 9.8 | 0.13 | – | – | – | – | – | –
CN(C)CCN(C)C1CCN(c2cc3c(NC4CCN(CC5CN(c6ccc(C#N)cc6)C5)CC4)ncnc3cn2)CC1 | > 10 | 3.5 | 0.29 | – | – | – | – | – | –
CC(C)CNc1cc2c(NC3CCN(CC4CN(c5ccc(C#N)cc5)C4)CC3)ncnc2cn1 | > 10 | > 10 | 1.97 | – | – | – | – | – | –
N#Cc1ccc(N2CC(CN3CCC(Nc4ncnc5cnc(N6CCCC6)cc45)CC3)C2)cc1 | > 10 | 6.5 | > 10 | – | – | – | – | – | –
N#Cc1ccc(N2CC(CN3CCC(Nc4ncnc5ccc(NCCO)nc45)CC3)C2)cc1 | > 10 | > 10 | > 10 | – | – | – | – | – | –
CN1CCN(c2ccc3ncnc(NC4CCN(CC5CN(c6ccc(C#N)cc6)C5)CC4)c3n2)CC1 | 10 | 5.6 | 0.07 | – | – | – | – | – | –
O=S(=O)(c1ccncc1)c1ccc(N2CC(CN3CCC(Nc4ncnc5ccc(Cl)nc45)CC3)C2)cc1 | 8.8 | 2 | 0.03 | 0.01 (≈ 18.2 µM) | – | – | – | – | –
CCCc1cc2c(N3CCN(C4=NCC(C)(C)S4)CC3)ncnc2s1 | > 10 | 9.2 | – | – | 8.52 | 7.62 | Active | Dde | Active
N#Cc1ccc(N2CC(CN3CCC(Nc4ncnc5cnc(NC6CC6)cc45)CC3)C2)cc1 | > 10 | > 10 | > 10 | – | – | – | – | – | –
CC(C)Nc1cc2c(NC3CCN(CC4CN(c5ccc(C#N)cc5)C4)CC3)ncnc2cn1 | > 10 | > 10 | 0.53 | – | – | – | – | – | –
